The subject of assay [1] is sub-genomic HCV replicon of genotype 1a. As to the kind of experiment: ELISA (NS5A protein level) in sub-genomic replicon 1a cell line W11.8. In kind it is cell-based. As to conditions: for IC50: W11.8, Table 4; for IC99 (nM) (1a): Table 4. From the text: Activity Determination Using the ELISA and the Sub-Genomic Replicon 1a Cell Line
The cell line W11.8 containing the sub-genomic HCV replicon of genotype 1a is used to determine the potency of the drugs. The RNA replication in presence of different drug concentrations is indirectly measured in this cell line by the level of NS5A protein content upon drug treatment for four days. It is shown that the level of the NS5A protein correlates well with the level of HCV RNA in the replicon cell line. Cells are split twice a week in order to keep the confluence state below 85% of the culture flask surface area. The culture media used for cell passaging consists of DMEM-10% foetal bovine serum with 100 UI/mL penicillin, 100 μg/mL streptomycin, 2 mM glutamine, 1 mM sodium pyruvate, non-essential amino acids (1×) and 600 μg/mL of G418 final concentrations. Monolayer of the W11.8 cells is trypsinized and cells are counted. Cells are diluted at 50,000 cells/mL with complete DMEM without G418, then approximately 5,000 viable cells (100 μL) are plated per well in a white opaque 96-well microtiter plate. After an incubation period of 2-4 hours at 37° C. in a 5% CO2 incubator, compounds are added at various concentrations. Drugs are resuspended in DMSO at a stock concentration of 10 mM. Then, drugs are serially diluted at twice the final concentration in the same medium. One volume (100 μL) of each drug dilution is then added to each well that contains cells. A control compound is used as an internal standard for each plate assay. Sixteen wells are used as control (0% inhibition) without drug. […] Values from 100% inhibited wells were averaged and used as the background value. Cells are further incubated for four days at 37° C. in a 5% CO2 incubator. Following the incubation time of four days, the media is removed and wells are washed once with 150 μL of PBS at room temperature for five minutes. Cells are then fixed for five minutes using 150 μL per well of cold (−20° C.) fixative solution (50% methanol/50% acetone mix). Cells are then washed twice with 150 μL of PBS (phosphate buffered saline) per well, following the addition of 150 μL of blocking solution, cells are incubated for one hour at 37° C. to block non-specific sites. The blocking solution is removed and cells are washed twice with 150 μL of PBS per well and once with 150 μL of PBSTS solution (PBS/0.1% Triton X-100/0.02% SDS) per well. Then, 50 μL of mouse monoclonal anti-NS5A antibody (Santa Cruz, Cat. No. sc-52417) is added in each well, diluted 1/1,000 in the blocking solution and incubated at 4° C. overnight. Next day, media is removed and plates are washed five times with 150 μL of PBS per well with five-minute incubations at room temperature. Then 50 μL per well of peroxidase-conjugated donkey anti-mouse antibody (Jackson Immunoresearch, Cat. No. 715-036-150) diluted 1/10,000 in the blocking solution is added and incubated at room temperature for three hours on a shaker (500 rpm). Plates are washed four times with 150 μL of PBSTS solution per well and once with 150 μL of PBS. Then, substrate solution (100 μl, SuperSignal ELISA Pico Chemiluminescent Substrate, Fisher Cat. No. 37069) is added in each well and plates are incubated 60 minutes at room temperature prior to reading the luminescence (relative light units) on the Analyst HT plate reader. The percentage of inhibition at each drug concentration tested (in duplicate) is calculated.
For orientation: In an ELISA, binding on a coated surface is turned into a signal by an enzyme label.

The subject of assay [2] is HCV (1b) RNA replication (replicon I389Luc-ubi-neo/NS3-3′/5.1). As to the kind of experiment: Cell-based luciferase reporter HCV (1b) RNA replication assay, Huh-ET cells. To be noted: Table 4, sub-genomic replicon 1b cell line; for IC50: Hepatitis C virus. From the text: Cell-Based Luciferase Reporter HCV (Ib) RNA Replication Assay Cell Culture
Replicon cell lines Huh-5.2 are derived from the Huh-7 hepatocarcinoma cell line are maintained in culture as generally described in Krieger, N; Lohmann, V; Bartenschlager, R. Enhancement of hepatitis C virus RNA replication by cell culture-adaptive mutations. J. Virol. 2001, 75, 4614-4624. The Huh-5.2 cells contain the highly cell culture-adapted replicon I389Luc-ubi-neo/NS3-3′/5.1 construct that carries, in addition to the neomycin gene, an integrated copy to the firefly luciferase gene (Krieger, N; Lohmann, V; Bartenschlager, R. Enhancement of hepatitis C virus RNA replication by cell culture-adaptive mutations. J. Virol. 2001, 75, 4614-4624). This cell line allows measurement of HCV RNA replication and translation by measuring luciferase activity. It has been previously shown that the luciferase activity tightly follows the replicon RNA level in these cells (Krieger, N; Lohmann, V; Bartenschlager, R. Enhancement of hepatitis C virus RNA replication by cell culture-adaptive mutations. J. Virol. 2001, 75, 4614-4624). The Huh-ET cell line has the same features as those mentioned for Huh-5.2 cell line, except that ET cells are more robust and contain an adaptative mutation in the HCV NS4B gene instead of NSSA. Both cell lines are maintained in cultures at a sub-confluent level (<85%) as the level of replicon RNA is highest in actively proliferating cells. The culture media used for cell passaging consist of DMEM (Gibco BRL Laboratories, Mississauga, ON, Canada) supplemented with 10% foetal bovine serum with 1% penicilin/streptomycin, 1% glutamine, 1% sodium pyruvate, 1% non-essential amino acids, and 180 μg/ml of G418 final concentration. Cells are incubated at 37° C., in an atmosphere of 5% CO2 and passaged twice a week to maintain sub-confluence.
Approximately 3000 viable Huh-ET cells (100 μl) are plated per well in a white opaque 96-well microtiter plate. The cell culture media used for the assay is the same as described above except that it contains no G418 and no phenol red. After an incubation period of 3-4 hours at 37° C. in a 5% CO2 incubator, compounds (100 μl) are added at various concentrations. Cells are then further incubated for 4 days at 37° C. in a 5% CO2 incubator. Thereafter, the culture media is removed and cells are lysed by the addition of 95 μL of the luciferase buffer (luciferin substrate in buffered detergent). Cell lysates are incubated at room temperature and protected from direct light for at least 10 minutes. Plates are read for luciferase counts using a luminometer (Wallac MicroBeta Trilux, Perkin Elmer™, MA, USA).
Curves are fitted to data points using nonlinear regression analysis, and IC50s are interpolated from the resulting curve using GraphPad Prism software, version 2.0 (GraphPad Software Inc., San Diego, Calif., USA).
(In general: In a reporter assay the amount or activity of a reporter protein is the signal.)

The mark [3] stands for this setting: Hepatitis C virus, W11.8, read-out: EC50 (μM) (1a), Table 3.

Read-outs that look alike come from different tables or passages of the source.

Usually EC50 stands for the midpoint of the concentration-response curve. The IC50 is the concentration that gives 50% inhibition.

With `COC(=O)N[C@H](C(=O)N1CCCC1c1nc2cc(C#Cc3cc4[nH]c([C@@H]5CCCN5C(=O)[C@@H](NC(=O)OC)C(C)C)nc4s3)ccc2[nH]1)C(C)C` (stereo partly shown) [Compound 1b], in assay [1] (setting [3]), the concentration giving a half-maximal response (EC50) came to 0.828 µM.
For `COC(=O)NC(C(=O)N1C[C@@H](C)C[C@H]1c1nc2sc(-c3ccc(-c4ccc5[nH]c([C@@H]6C[C@H](C)CN6C(=O)[C@@H](NC(=O)OC)C(C)C)nc5c4)cc3)cc2[nH]1)C(C)C` (stereo partly shown) [Compound 1c], the IC50 came out at 0.011 nM in assay [2] and 1.65 nM in assay [1] (Hepatitis C virus). Further, in assay [2], the “IC99 (nM) (1b)” value was 0.207 nM. Besides, in assay [1], the “IC99 (nM) (1a)” value was 11.155 nM.
As to `COC(=O)N[C@H](C(=O)N1C[C@@H](C)C[C@H]1c1nc2cc(C#Cc3cc4[nH]c([C@@H]5C[C@H](C)CN5C(=O)[C@@H](NC(=O)OC)C(C)C)nc4s3)ccc2[nH]1)C(C)C` [Compound 2b], the EC50 in assay [1] (setting [3]) is 0.0403 µM; in assay [1] (read-out: EC50 (μM) (1a), Table 3), 0.0377 µM.
For the compound `COC(=O)N[C@H](C(=O)N1C[C@@H](C)C[C@H]1c1nc2sc(-c3ccc(-c4ccc5[nH]c([C@@H]6CC[C@H](C)N6C(=O)[C@@H](NC(=O)OC)C(C)C)nc5c4)cc3)cc2[nH]1)C(C)C` [Compound 2c], the half-maximal inhibitory concentration (IC50) in assay [2] was 0.005 nM; in assay [1] (Hepatitis C virus), 0.619 nM. In assay [2], the “IC99 (nM) (1b)” value was 0.303 nM. In addition, the “IC99 (nM) (1a)” value in assay [1] was determined as 10.038 nM.
For `COC(=O)N[C@H](C(=O)N1CCC[C@H]1c1nc2sc(C#CC#Cc3cc4[nH]c([C@@H]5CCCN5C(=O)[C@@H](NC(=O)OC)C(C)C)nc4s3)cc2[nH]1)C(C)C` [Compound 3b], the concentration for a half-maximal effect (EC50) in assay [1] (setting [3]) worked out at 0.282 µM.
The same measure, in the same setting: the figure for `COC(=O)N[C@H](C(=O)N1C[C@@H](C)C[C@H]1c1nc2sc(C#CC#Cc3cc4[nH]c([C@@H]5C[C@H](C)CN5C(=O)[C@@H](NC(=O)OC)C(C)C)nc4s3)cc2[nH]1)C(C)C` [Compound 4b] is 0.184 µM.

Source of the values: patent publication US20130090364A1, “ANALOGUES FOR THE TREATMENT OR PREVENTION OF FLAVIVIRUS INFECTIONS” (priority 2010, published 2013).
